Experiments:
Bcl-2 = experiment: Western blot of building block components, Bcl-2 expression in Skmel-28 melanoma cells; assay type: cell-based; design: key to Bcl-2 expression: X: a decrease in Bc1-2 expression for most of the concentrations and combinations tested as depicted in the table below; settings: for Bcl-2 reduction or Caspase-3 increase: 500 nM, 1 μM, 25 μM and 50 μM
Procedure: (§1) Skmel-28 melanoma cells were cultured in DMEM/F12 supplemented with 5% Fetal Bovine Serum (FBS) and 1× final concentration of Antibiotics. The cells were grown to 85% confluency and treated with building block components for 3, 6, 12 and 24 hours. The cells were then pelleted and a Western blot analysis was performed.
(§2) The test building block components included L-Phenylylalanine, DL-Phenylyalanine, D-Phenylylalanine, L-Tyrosine, DL-Tyrosine, D-Tyrosine, 4-Hydroxy-phenylpyruvate, phenylacetate, 3-methoxy-4-hydroxymandelate (vanillylmandelate or VMA), vanillic acid, 4-hydroxy-benzoate, pyridoxine, panthenol, mevalonic acid, Acetylglycine, Acetyl-CoA, Farnesyl, and 2,3-Dimethoxy-5-methyl-p-benzoquinone.
(§3) In the Western Blot Analysis, the cells were pelleted in cold PBS, lysed, and the protein levels were quantified using a BCA protein assay. The whole cell lysate was loaded in a 4% loading 12% running Tris-HCl gel. The proteins were then transferred to a nitrocellulose paper then blocked with a 5% milk Tris-buffered solution for 1 hour. The proteins were then exposed to primary antibodies (Bcl-2 and Caspase-3) overnight. The nitrocellulose paper was then exposed to Pico Chemilluminescent for 5 min and the protein expression was recorded. After exposure, actin was quantified using the same method. Using ImageJ the levels of protein expression were quantified. A t-Test was used to analyze for statistical significance.

Caspase-3 = experiment: Western blot of building block components, Caspase-3 expression in Skmel-28 melanoma cells; assay type: cell-based
Procedure: as §1, §2, §3

Melanoma cells = experiment: Cell proliferation assay (live cell count) of building block combinations; assay type: cell-based
Procedure: Cell Proliferation Assay of the Combination of 4-Hydroxy-Benzoate with Benzoquinone: This set of experiments used a cell proliferation assay to assess the effect of combining different building block molecules on cell proliferation.
The first study examined the effect of combining 4-Hydroxy-Benzoate with Benzoquinone. Cells were incubated for 48 hours, after which a cell count was performed for the live cells. Each test group was compared to the control, and each combination groups were compared to Benzoquinone control. The compounds were statistically analyzed for the addition of Benzoquinone.
Additional studies were performed testing additional molar ratios. For the first test 4-Hydroxybenzoic were tested at concentrations of 500 nM, 1 μM, and 50 μM. These concentrations were tested in combination with 2,3-Dimethoxy-5-methyl-p-benzoquinone (Benzo). The concentration of Benzo tested were 25 μM, 50 μM, and 100 μM. Melanoma cells were grown to 80% confluency and seeded in 6 well plates at a concentration of 40K cells per well. The cells were treated with CoQ10, 4-Hydroxybenzoate, Benzo, and a combination of 4-Hydroxybenzoate/Benzo.
A T-test was performed with p<0.05 as statistically significant.

[1] = test system: neonatal fibroblast cells; experiment: Cell proliferation assay (coulter counter); assay type: cell-based; settings: HB 500 nM, 5 μM, 25 μM, alone or with benzoquinone 25, 50, 100 μM; 24 hours
Procedure: A cell proliferation assay was also performed on neonatal fibroblast cells. […] The cells were trypsinized and quantified using a coulter counter.

[2] = test system: Succinate Dehydrogenase (SDH) Subunit B; experiment: Western blot, Succinate Dehydrogenase B in mitochondrial preparations; assay type: cell-based; settings: NCIE0808 Mitopreps, 50 uM, 3 h
Procedure: The above blots were stripped by incubating for 30 minutes with methanol, followed by two 10 minute washes with TBS-T, then 30 minutes of incubation with Stripping buffer at 50 deg C., and followed by two washes with 100 ml or more of TBS-T for 30′ each. The blots were scanned in laser scanner to check for complete stripping. The blots were activated with methanol for 5 seconds, washed with water for 5 minutes, and TBST for 15 minutes. The blots were blocked for 1 hour with 5% blocking reagent in TBS-T at room temperature and then washed 3 times with TBS-T (1×-15′; 2×5′ each) and probed with the primary antibody for PKM2, SDHB or SDHC in 5% BSA in TBS-T by incubation overnight at 4 deg C. with gentle shaking. The primary antibody for SDHC (ABNOVA H00006391-MO2; antimouse) was at 1:500 dilution. The primary antibody for SDHB was from Abcam ab4714-200; antimouse; at 1:1000 dilution. The primary antibody for Pyruvate Kinase M2 (PKM2) was from Novus Biologicals H00005315-D0IP; antirabbit; at 1:500 dilution. After incubation with primary antibodies, the membranes were washed 3 times with TBS-T (1×-15′; 2×5′ each) and probed with the secondary antibody (SDHB & C antimouse; and PKM2 antirabbit; 1:10,000 dilution) for 1 h on the orbital tilting shaker at room temperature. After 1 h of incubation, the blots were washed 3 times with TBS-T (1×-15′; 2×5′ each) and incubated with ECF reagent for 5 minutes and then each blot scanned with 5100 Fuji Laser scanner at 25 uM resolution, 16 bit, green laser, at 400V and at 500 V.

cancer cells = settings: cited from earlier work
HDFa cells = experiment: Extracellular acidification rate (ECAR), SeaHorse XF analyzer; assay type: cell-based, human; settings: HDFa
Excerpt: Environmental influencers (e.g., MIMs or Epi-shifters) may also be identified by changes in cellular energetics. One example of the measurement of cellular energetics are the real-time measures of the consumption of molecular oxygen and/or the change in pH of the media of a cell culture. For example, the ability of a potential epi-shifter to modulate the metabolic state of a cell may be analyzed using, for example, the XF24 Analyzer (Seahorse, Inc.). This technology allows for real time detection of oxygen and pH changes in a monolayer of cells in order to evaluate the bioenergetics of a cell microenvironment. The XF24 Analyzer measures and compares the rates of oxygen consumption (OCR), which is a measure of aerobic metabolism, and extracellular acidification (ECAR), which is a measure of glycolysis, both key indicators of cellular energetics.
(SeaHorse Biosciences Inc, North Billerica, Mass.).
In this experiment, the OCR and extracellular acidification rate (ECAR) in normal cells lines were obtained in the presence and absence of CoQ10 to determine baseline values. It was observed that in its native nutrient environment, the basal OCR rates in normal cells lines are different, and are usually a function of the physiological roles of the cells in the body.
Table 51 below describes the ECAR values (mpH/min) in HDFa cells in the presence or absence of CoQ10 under normoxic and hypoxic conditions at 5.5 mM and 22 mM glucose.

NC(Cc1ccccc1)C(=O)O (racemic) [DL-Phenylalanine]
Bcl-2 expression (Bcl-2; 24 hours, concentration not stated (5, 25, 100 μM tested)): statistically significant decrease | Caspase-3 expression (Caspase-3; 3 hours, concentration not stated (5, 25, 100 μM tested)): statistically significant increase

NC(Cc1ccc(O)cc1)C(=O)O (racemic) [DL-Tyrosine]
Bcl-2 expression (Bcl-2; 1 μM and 15 μM, 12 hours): statistical decrease | Bcl-2 expression (Bcl-2; 5 μM, 24 hour (DL-Tyrosine series)): statistical decrease | Caspase-3 expression (Caspase-3; 5 μM and 15 μM, 12 hours): increase

O=C(O)C(=O)Cc1ccc(O)cc1 [4-Hydroxy-phenylpyruvate]
Bcl-2 expression (Bcl-2; 5 μM and 15 μM, 24 hours): significant reduction | Caspase-3 expression (Caspase-3; 5 μM and 15 μM, 12 hours): significant increase

O=C(O)c1ccc(O)cc1 [4-Hydroxybenzoate]
Bcl-2 expression (Bcl-2; 15 μM, 24 hours): significant reduction | cell number vs control (Melanoma cells; 48 hours incubation): significant decrease | cell proliferation (Melanoma cells; treatment medium containing HB (500 nM, 1 μM, 50 μM)): significant decrease | fibroblast cell number (toxicity in normal cells) [1]: did not show a significant reduction

CC(=O)SCCNC(=O)CCNC(=O)[C@H](O)C(C)(C)COP(=O)(O)OP(=O)(O)OC[C@H]1O[C@@H](n2cnc3c(N)ncnc32)[C@H](O)[C@@H]1OP(=O)(O)O [Acetyl-CoA]
Bcl-2 reduction or Caspase-3 increase (Bcl-2): no significant observed reduction in Bcl-2 or increase in Caspase-3 expression

CC(=O)NCC(=O)O [Acetylglycine]
Bcl-2 expression (Bcl-2; 5 μM and 25 μM, 12 hours): significant decrease | Bcl-2 expression (Bcl-2; 100 μM, 24 hour): significant decrease

COC1=C(OC)C(=O)C(C/C=C(\C)CC/C=C(\C)CC/C=C(\C)CC/C=C(\C)CC/C=C(\C)CC/C=C(\C)CC/C=C(\C)CC/C=C(\C)CC/C=C(\C)CCC=C(C)C)=C(C)C1=O [Coezyme Q10]
Succinate Dehydrogenase B Average Normalized Volume [2]: 634

N[C@H](Cc1ccccc1)C(=O)O [D-Phenylalanine]
Bcl-2 expression (Bcl-2; 5 μM and 25 μM, 3 hours): significant reduction | Bcl-2 expression (Bcl-2; 5 μM, 25 μM and 100 μM, 6 hours): significant reduction | Caspase-3 expression (Caspase-3; 5 μM and 100 μM, 6 hours): significant increase

N[C@H](Cc1ccc(O)cc1)C(=O)O [D-Tyrosine]
Bcl-2 expression (Bcl-2; 5 μM and 15 μM, 12 and 24 hours): reduction | Caspase-3 expression (Caspase-3; 1 μM, 12 and 24 hour): increase | Caspase-3 expression (Caspase-3; 5 μM, 3, 12 and 24 time periods): significantly increased

N[C@@H](Cc1ccccc1)C(=O)O [L-Phenylalanine]
Bcl-2 expression (Bcl-2; 5 μM, 3 hr): X | Bcl-2 expression (Bcl-2; 5 μM, 6 hours): statistically significant decrease | Bcl-2 expression (Bcl-2; 25 μM, 3 hr): X | Bcl-2 expression (Bcl-2; 25 μM, 6 hr): X | Bcl-2 expression (Bcl-2; 25 μM, 12 hours): statistically significant decrease | Bcl-2 expression (Bcl-2; 100 μM, 3 hours and 12 hours incubation): statistically significant decrease | Bcl-2 expression (Bcl-2; 100 μM, 3 hr): X | Bcl-2 expression (Bcl-2; 100 μM, 6 hr): X | Bcl-2 expression (Bcl-2; 100 μM, 24 hr): X | Caspase-3 expression (Caspase-3; 25 μM, 12 hours): statistically significant increase

N[C@@H](Cc1ccc(O)cc1)C(=O)O [L-Tyrosine]
Bcl-2 expression (Bcl-2; 5 μM, 24 hours): statistically significant decrease | Bcl-2 expression (Bcl-2; 500 μM and 5 μM (so in the source), 24 hours): statistically significant decrease | Caspase-3 expression (Caspase-3; 500 nM, 12 hours): statistically significant increase

C[C@@](O)(CCO)CC(=O)O [Mevalonic Acid]
Bcl-2 reduction or Caspase-3 increase (Bcl-2): no significant reduction in Bcl-2 expression or an increase in Caspase-3 expression

CC(C)(CO)[C@@H](O)C(=O)NCCCO [Panthenol]
Bcl-2 expression (Bcl-2; 25 μM): significant reduction

Cc1ncc(CO)c(CO)c1O [Pyridoxine]
Bcl-2 expression (Bcl-2; 24 hours (5, 25, 100 μM tested)): significant reduction

COc1cc(C(O)C(=O)O)ccc1O (stereo not drawn) [VMA, 3-methoxy-4-hydroxymandelate]
apoptotic effect (Bcl-2/Caspase-3 Western blot) (Bcl-2; 100 nM to 100 μM): no statistically significant apoptotic effect | trend of Bcl-2 expression (Bcl-2; 100 nM to 100 μM): downward trend

COc1cc(C(=O)O)ccc1O [Vanillic Acid, Vanillic acid]
Bcl-2 expression (Bcl-2; 500 nM and 5 μM, 24 hour): significantly reduce | Bcl-2 expression (Bcl-2; 15 μM, 3 hours): reduction | Caspase-3 expression (Caspase-3; 15 μM, 24 hours): significant increase

C=C1/C(=C\C=C2/CCC[C@]3(C)[C@@H]([C@H](C)CCCC(C)(C)O)CC[C@@H]23)C[C@@H](O)C[C@@H]1O [Vitamin D3, 1α, 25-dihydroxyvitamin D3]
expression of anti-apoptotic proteins BCL2 and BCL-XL (cancer cells; reported (Deeb et al. 2007)): repressing the expression | expression of pro-apoptotic proteins (BAX, BAK and BAD) (cancer cells; reported (Deeb et al. 2007)): inducing the expression | gene transcription of cyclin-dependent kinase inhibitor p21WAFI/CIPI (cancer cells; reported (Deeb et al. 2007)): induce gene transcription | expression of vascular endothelial growth factor (VEGF) (cancer cells; reported (Masuda and Jones, 2006)): inhibit the expression

COC1=C(OC)C(=O)C(C/C=C(\C)CC/C=C(\C)CC/C=C(\C)CC/C=C(\C)CC/C=C(\C)CC/C=C(\C)CC/C=C(\C)CC/C=C(\C)CC/C=C(\C)CCC=C(C)C)=C(C)C1=O [compound 31510]
ECAR (HDFa cells; Hypoxia (5.5 mM), 50 μM): 5 mpH/min | ECAR (HDFa cells; Hypoxia (5.5 mM), 100 μM): 5 mpH/min | ECAR (HDFa cells; Hypoxia (22 mM), 50 μM): 6 mpH/min | ECAR (HDFa cells; Hypoxia (22 mM), 100 μM): 8 mpH/min | ECAR (HDFa cells; Normoxia (5.5 mM), 50 μM): 6 mpH/min | ECAR (HDFa cells; Normoxia (5.5 mM), 100 μM): 6 mpH/min | ECAR (HDFa cells; Normoxia (22 mM), 50 μM): 5 mpH/min | ECAR (HDFa cells; Normoxia (22 mM), 100 μM): 5 mpH/min

— patent publication US20110020312A1, “METHODS FOR TREATMENT OF METABOLIC DISORDERS USING EPIMETABOLIC SHIFTERS, MULTIDIMENSIONAL INTRACELLULAR MOLECULES, OR ENVIRONMENTAL INFLUENCERS” (priority 2009, published 2011)
